Assay results as given in US7598279B2, “Neurotherapeutic azole compounds” (SK Holdings Co., Ltd., priority 2005, dated 2009).

Experiments:
[1] = system: mice; experiment: Forced swimming test (FST); type: in vivo; details: 30 min after dosing
Procedure: The “Forced swimming test (FST)” for antidepressant activity was also carried out. The procedure employed in the FST for antidepressant is as follows. The compounds to be tested were dissolved in 30% PEG400 and administered ip and po into animals. 30 min later, the immobility time during post 4 minutes of 6 minutes experiment time was measured.

[2] = system: mice; experiment: Maximal ElectroShock (MES)-induced tonic seizure test; type: in vivo; details: for responders at 30 mg/kg / ED50: Mus musculus; for responders at 30 mg/kg: read-out: Mice MES Protection % (mpk/peak time); for ED50: read-out: Mice MES ED50 (mpk/peak time)
Procedure: The “Maximal ElectroShock (MES)” test is a well-established pharmacological screening method for anticonvulsants against tonic-clonic seizures. The procedure employed in the MES test for anticonvulsants is as follows. The compounds to be tested were dissolved in 30% PEG400 and administered ip and po into animals. After the designated number of hours, maximal electroshock (50 mA, 60 Hz, 0.2 sec) was applied into animals via corneal electrodes using IITC Life Science model 11A Shocker. […] Median efficacy dose (ED50) levels were determined using three different dose levels with at least 8 mice in each group.

[3] = system: mice; experiment: Pentylenetetrazol (PTZ)-induced clonic seizure test; type: in vivo; details: for responders at 30 mg/kg / ED50: Mus musculus; for responders at 30 mg/kg: read-out: Mice PTZ Protection % (mpk/peak time); for ED50: sc, read-out: Mice PTZ ED50 (mpk/peak time)
Procedure: The “Pentylenetetrazol (PTZ)” test for anticonvulsant and antianxiety activity was also carried out.
The procedure employed in the PTZ test is as follows. The compounds to be tested were dissolved in 30% PEG400 and administered ip and po into animals. After the designated number of hours, each animal was injected subcutaneously with 100 mg/kg of PTZ (CD97 dose) and observed for up to 30 minutes for the presence or absence of clonic spasms over 5 seconds. Median efficacy dose (ED50) levels were determined using three different dose levels with 8 mice in each group.

[4] = system: TBPS site of GABA-A receptor; experiment: GABA-A receptor (TBPS site) binding assay, [35S]TBPS; details: rat brain membranes, 2 nM [35S]TBPS
Procedure: Compounds of the inventions were tested for specific binding to TBPS (t-butyl bicyclophosphorothionate) site, an allosteric modulator site of GABA-A receptor as modified from G. Maksay and M. Simonyi, Eur. J. Pharmacol. 1985, 117(2), 275. and Gee, K. W. et al., J. Pharm. Exp. Ther. 1988, 246, 803.
This binding assay was performed using [35S] TBPS as radioligand in washed crude membrane homogenate from rat brains. Membrane preparations were carried out according to procedure described below. Sprague-Dawley (SD) rat weighting 230 g were killed by decapitation and their whole brains were rapidly removed and its cerebellums were excluded. The dissected brains were homogenized for 30 sec in 10 volumes (W/V) of ice-cold 0.32 M Sucrose and 50 mM Tris-citrate buffer pH 7.4 using glass homogenate. The homogenate was centrifuged at 2,000×g for 5 min at 4° C. And the supernatant re-centrifuged at 50,000×g for 20 min at 4° C. The supernatant was discarded and the resulting pellets were resuspended in 10 volumes (W/V) of ice-cold 50 mM Tris-citrate buffer pH 7.4. And then the suspended pellet was centrifuged at 50,000×g for 20 min at 4° C. The resulting pellets were suspended again in 32 volumes (W/V) of ice-cold 50 mM Tris-citrate buffer pH 7.4 with 0.05% Triton X-100 and then incubated in 37° C. for 60 min using a water bath. The incubated suspension was centrifuged at 50,000×g for 20 min at 4° C. Resuspending and centrifugation step of the remained pellets were repeated twice at the same manner and final pellets were resuspended in 10 volumes (W/V) of ice-cold 50 mM Tris-citrate buffer pH 7.4 to enable distribution of 2 ml aliquot in microcentrifuge tube, which were used immediately or kept at −80° C. for no more than 1 month before use.
For TBPS site binding assay, 50 μl of the tested compound were added to 100 μg membrane protein suspended in 0.15 ml of 50 mM Tris-citrate buffer with 200 mM NaCl pH 7.4 in presence of 2 nM of [35S] TBPS. The incubation of mixtures were carried out for 1.5 hours at 25° C. and then rapidly filtered over Whatman GF/C glass fiber filters, followed by twice 4.5 ml rinses with ice-cold incubation buffer. The filters were placed in counting vials and 4 ml scintillation solution. The vials were counted in a Beckman scintillation counter. Non-specific binding was determined in parallel incubations with 100 μM picrotoxin.
IC50 values for TBPS site binding assay was calculated using Graphpad PRISM v.3.00.

[5] = system: mice; experiment: Light-Dark Box (LDB) test; type: in vivo
Procedure: Light-Dark Box (LDB) test, one of the unconditioned conflict tests, was used to investigate anxiolytic activity for several drugs such as Diazepam, Buspirone, etc (Allikmets et al, 1996; Belzung and Griebel, 2001; Cutler and Aitken, 1991; Leyre et al, 2004). In the present study, anxiolytic effect of azole compounds containing carbamoyl group represented by general structural formula (IX) was investigated on the LDB test in mice.
The animals were treated with compound 30 min prior to testing. The light-dark box consisted of a plexiglas apparatus measuring 45 cm×27 cm×27 cm (L×W×H), and was partitioned into two compartments, one fully opaque (dark compartment made of black plexiglas: 18 cm of total length of apparatus), while the second was lit from the compartment ceiling by a 100 W bulb. A small opening (7×7 cm) in the partition wall allowed free passage between the light and dark compartments.
Animals were placed at the lit compartment first, and the latency for escape into dark was checked and tested in the LDB for 5 min after the first entering into dark box. The animal, which the latency was over 2 min, was excluded from the test. Total time spent in the light compartment was counted. Movement of animal was checked through the TV-CCD camera by an experienced observer blind to the conditions of the experiment. A mouse whose four paws were in the new box was considered as having changed box.

[6] = treated 30 min prior to testing, dose not given
[7] = treated 30 min prior to testing

SMILES | Mice FST Reduction of immobility % ([1]; dose not given) [%] | TBPS Inhibition % (At 100 μM) [4] [%] | Mice LDB % Duration in the light box [5, 6] | Mice FST Reduction of immobility % [1] | ED50 ([2]; 0.5 h) [mg/kg] | further results
O=C(OC(Cn1ncnn1)c1ccccc1Cl)N1CCC(Cc2ccccc2)CC1 (centres unmarked) [Example 138, 4-Benzyl-piperidine-1-carboxylic acid 1-(2-chloro-phenyl)-2-tetrazol-2-yl-ethyl ester] | 35.9 | 49.6 | – | – | – | responders at 30 mg/kg ([2]; 2 h): 100%; responders at 30 mg/kg ([3]; 4 h): 66.7%
NC(=O)OC(Cn1ncnn1)c1cc(Cl)ccc1Cl (centres unmarked) [Example 89, Carbamic acid 1-(2,5-dichloro-phenyl)-2-tetrazol-2-yl-ethyl ester] | – | 27.6 | 167.4% ^ | N.S | – | ED50 ([2]; 1 h): 6.15 mg/kg; ED50 ([3]; 1 h): 14.5 mg/kg
NC(=O)O[C@@H](Cn1ncnn1)c1c(Cl)cccc1Cl [Example 126, Carbamic acid (R)-1-(2,6-dichloro-phenyl)-2-tetrazol-2-yl-ethyl ester] | 72.0 | 0.3 | 241.5% ^ | – | 2.7 | ED50 ([3]; 0.5 h): 5.06 mg/kg
NC(=O)OC(Cn1ncnn1)c1c(Cl)cccc1Cl (centres unmarked) [Example 98, Carbamic acid 1-(2,6-dichloro-phenyl)-2-tetrazol-2-yl-ethyl ester] | 31.5 | 29.9 | – | – | 6.03 | ED50 ([3]; 0.5 h): 11.6 mg/kg
NC(=O)O[C@H](Cn1nccn1)c1ccc(Cl)cc1Cl [Example 114, Carbamic acid (S)-1-(2,4-dichloro-phenyl)-2-[1,2,3]triazol-2-yl-ethyl ester] | – | – | 172.5% ^ | N.S | – | ED50 ([2]; 1 h): 33.9 mg/kg; ED50 ([3]; 1 h): 16.9 mg/kg; IC50 [4]: 107 µM
NC(=O)O[C@@H](Cn1ccnn1)c1ccc(Cl)cc1Cl [Example 130, Carbamic acid (R)-1-(2,4-dichloro-phenyl)-2-[1,2,3]triazol-1-yl-ethyl ester] | 8.8 | 42.8 | – | – | 24 | Mice LDB % Duration in the light box [5, 7]: N.S; ED50 ([3]; 0.5 h): 8 mg/kg
NC(=O)O[C@@H](Cn1nccn1)c1ccccc1Cl [Example 33, Carbamic acid (R)-1-(2-chloro-phenyl)-2-[1,2,3]triazol-2-yl-ethyl ester] | 26.2 | – | – | – | 9.72 | Mice LDB % Duration in the light box [5, 7]: N.S; ED50 ([3]; 0.5 h): 8.18 mg/kg
NC(=O)OC(Cn1ncnn1)c1ccccc1Cl (centres unmarked) [Example 2, Carbamic acid 1-(2-chloro-phenyl)-2-tetrazol-2-yl-ethyl ester] | – | – | 180%^ | N.S | 8.6 | ED50 ([3]; 0.5 h): 5.9 mg/kg
NC(=O)O[C@H](Cn1ncnn1)c1ccc(Cl)cc1Cl [Example 113, Carbamic acid (S)-1-(2,4-dichloro-phenyl)-2-tetrazol-2-yl-ethyl ester] | – | – | −172% ^ | N.S | – | ED50 ([2]; 1 h): 13 mg/kg; ED50 ([3]; 1 h): 20.7 mg/kg
NC(=O)O[C@@H](Cn1nccn1)c1ccc(Cl)cc1Cl [Example 115, Carbamic acid (R)-1-(2,4-dichloro-phenyl)-2-[1,2,3]triazol-2-yl-ethyl ester] | – | – | – | N.S | – | Mice LDB % Duration in the light box ([5]; 10 mpk, ip): 245%^; ED50 ([2]; 0.25 h): 12.7 mg/kg; ED50 ([3]; 1 h): 8.43 mg/kg; IC50 [4]: 4.3 µM
NC(=O)OC(COc1ccc(Cl)c(Cl)c1)Cn1ncnn1 (centres unmarked) [Example 148, Carbamic acid 2-(3,4-dichloro-phenoxy)-1-tetrazol-2-ylmethyl-ethyl ester] | – | 76.1 | – | N.S | – | responders at 30 mg/kg ([2]; 0.5 h): 100%; responders at 30 mg/kg ([3]; 4 h): 66.7%
CC(C(OC(N)=O)c1ccc(Cl)c(Cl)c1)n1ncnn1 (centres unmarked) [Example 80, Carbamic acid 1-(3,4-dichloro-phenyl)-2-tetrazol-2-yl-propyl ester] | 50.6 | 64.8 | – | – | – | responders at 30 mg/kg ([2]; 4 h): 33.3%
NC(=O)OC(Cn1nccn1)c1c(Cl)cccc1Cl (centres unmarked) [Example 99, Carbamic acid 1-(2,6-dichloro-phenyl)-2-[1,2,3]triazol-2-yl-ethyl ester] | – | 23.6 | – | N.S | 11.6 | responders at 30 mg/kg ([3]; 2 h): 100%
NC(=O)O[C@@H](Cn1ncnn1)c1ccc(Cl)cc1Cl [Example 103, Carbamic acid (R)-1-(2,4-dichloro-phenyl)-2-tetrazol-2-yl-ethyl ester] | – | – | 277.8% ^ | N.S | – | ED50 ([2]; 1 h): 19.2 mg/kg; ED50 ([3]; 1 h): 5.14 mg/kg; IC50 [4]: 13.4 µM
NC(=O)O[C@@H](Cn1nccn1)c1ccc(Cl)cc1 [Example 86, Carbamic acid (R)-1-(4-chloro-phenyl)-2-[1,2,3]triazol-2-yl-ethyl ester] | – | 18.9 | – | N.S | 21.4 | –
NC(=O)NC(=O)OC(Cn1ncnn1)c1ccccc1Cl (centres unmarked) [Example 129, O-1-(2-Chloro-phenyl)-2-tetrazol-2-yl ethyl allophanate] | – | 5.6 | – | N.S | – | Mice MES ED50 (mpk/peak time) ([2]; mice, peak time 0.5 hr): 13.7/0.5 hr mpk; Mice PTZ Protection % (mpk/peak time) ([3]; 3 mice, 30 mpk, 1 hr): 100% (30/1 hr)
NC(=O)O[C@@H](Cn1ncnn1)c1ccc(Cl)c(Cl)c1 [Example 88, Carbamic acid (R)-1-(3,4-dichloro-phenyl)-2-tetrazol-2-yl-ethyl ester] | 88.4 | 52.8 | – | – | 19.1 | –
